{
  "source": "patent US12325697B2",
  "about": "(Nimbus Clio, Inc., priority 2021, dated 2025)",
  "key": {"[1]": {"molecular_target": "Recombinant human Cbl-b (aa 36-427) (Homo sapiens (Human), UniProt Q13191)", "sequence (Q13191 36-427)": "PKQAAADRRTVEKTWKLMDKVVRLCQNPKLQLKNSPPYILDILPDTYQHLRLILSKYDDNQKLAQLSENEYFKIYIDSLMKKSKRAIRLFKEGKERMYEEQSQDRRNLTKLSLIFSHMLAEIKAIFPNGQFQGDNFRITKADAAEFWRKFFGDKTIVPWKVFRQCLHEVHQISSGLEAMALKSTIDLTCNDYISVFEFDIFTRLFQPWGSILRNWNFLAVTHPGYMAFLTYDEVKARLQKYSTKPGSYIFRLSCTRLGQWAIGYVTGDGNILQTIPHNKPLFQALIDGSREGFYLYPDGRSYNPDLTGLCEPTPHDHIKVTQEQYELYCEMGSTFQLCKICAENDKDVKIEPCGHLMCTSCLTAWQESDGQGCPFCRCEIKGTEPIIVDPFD", "assay": "Cbl-b Biochemical Assay (TR-FRET)", "settings": "read-out: TR-FRET hCbl-b IC50", "summary_of_the_method": "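IC50 from 4-parameter fit of % inhibition (DMSO max, reference-inhibitor min), duplicate ten-point series. Compound preincubated with 6 nM Cbl-b, then Src-Zap70 (1-2.5 nM)/0.5 mM ATP reaction 60 min RT; EDTA quench with labelled UBE2D2-Ub and streptavidin-terbium, 60 min, HTRF at 520 nm.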"}, "[2]": {"molecular_target": "Recombinant human c-Cbl (aa 47-435) (Homo sapiens (Human), UniProt P22681)", "sequence (P22681 47-435)": "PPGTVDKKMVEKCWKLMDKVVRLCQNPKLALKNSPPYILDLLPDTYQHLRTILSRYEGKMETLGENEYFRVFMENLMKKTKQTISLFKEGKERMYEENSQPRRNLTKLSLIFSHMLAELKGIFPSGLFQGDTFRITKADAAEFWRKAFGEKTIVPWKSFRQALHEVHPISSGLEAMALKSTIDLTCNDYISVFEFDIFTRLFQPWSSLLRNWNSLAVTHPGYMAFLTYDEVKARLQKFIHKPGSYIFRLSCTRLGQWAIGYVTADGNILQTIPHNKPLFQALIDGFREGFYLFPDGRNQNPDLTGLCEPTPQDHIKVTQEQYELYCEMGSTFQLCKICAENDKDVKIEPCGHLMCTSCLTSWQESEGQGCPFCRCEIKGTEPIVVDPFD", "assay": "c-Cbl Biochemical Assay (TR-FRET)", "description": "Recombinant human c-Cbl (aa 47-435) was expressed in E. coli, purified and biotinylated in vitro. The protein was diluted to 12 nM in freshly prepared assay buffer consisting of 50 mM HEPES, pH 7.0, 100 mM NaCl, 5 mM MgCl2, 0.01% Triton-X 100, 0.01% BSA and 1 mM DTT. Recombinant human Src (aa 254-536)-[…]-Zap-70 (aa 281-297) fusion protein was expressed in E. coli and purified. Protein was diluted in assay buffer to 5-20 nM and ATP was added to 1 mM. Recombinant human UBE2D2([…]) was expressed in E. coli, purified and ubiquitinated and Bodipy labelled in vitro. Protein was diluted to 200 nM in assay buffer without MgCl2 (or Cisbio PPI buffer). Streptavidin-Terbium was added to 2 nM and EDTA to 10 mM, to provide a binding assay mix. Compounds were dissolved in DMSO and diluted to prepare a ten-point half log dilution series. 100 nl of each compound concentration was dispensed in duplicate in a 384 well black assay plate using acoustic dispensing. Wells for maximum signal controls received 100 nl of DMSO only and wells for minimum controls received 100 nl of a reference inhibitor compound at a final assay concentration of […] to produce 100% inhibition. 5 μl of diluted c-cbl enzyme was added to all wells of the assay plate and incubated at RT for 30 min. The enzyme assay was initiated by addition of 5 μl of Src-Zap/ATP mix to all wells, and the plate incubated at RT for 60-90 min. The enzyme reaction was terminated and the binding reaction was initiated by adding 10 μl of binding assay mix to all wells and incubating the plate at RT for 60 min prior to assay read. Final assay conditions consisted of 6 nM c-cbl, 2.5-10 nM Src-Zap70, 0.5 mM ATP, 1% (v/v) DMSO (enzyme reaction) and 100 nM UBE2D2([…])-Ub-FL-BODIPY, 5 mM EDTA, 1 nM Streptavidin-Tb (binding reaction). The HTRF assay signal was measured at 520 nm on an Envision plate reader, with reference signal at 485 or 620 nm. Data was normalized using maximum and minimum assay controls: % Inhibition=100-(100*((maximum control)-unknown)/(maximum control-minimum control)). A 4-parameter dose-response equation was used to fit the normalized dose-response data and derive an IC50 for test compounds."}},
  "data": [
    {"smiles": "Cn1cnnc1-c1cc(F)ccc1-c1cc(C2CC2)nc(N2Cc3cc(Cl)c(CN[C@@H]4CCC[C@@H]4O)cc3C2=O)c1", "note": "[ANR-2, 5-Chloro-2-{6-cyclopropyl-4-[4-fluoro-2-(4-methyl-1,2,4-triazol-3-yl)phenyl]pyridin-2-yl}-6-({[(1R,2S)-2-hydroxycyclopentyl]amino}methyl)-3H-isoindol-1-one]", "values": [
      {"measurement": "IC50", "setting": "[1]", "value": "≤ 200", "unit": "nM"},
      {"measurement": "IC50", "setting": "[2]", "value": "≤ 200", "unit": "nM"}
    ]},
    {"smiles": "CO[C@H](C)CNCc1cc(F)c2c(c1)C(=O)N(c1cc(-c3ccc(C#N)cc3-c3nncn3C)cc(C3CC3)n1)C2", "note": "[AKV-1, 4-{2-Cyclopropyl-6-[4-fluoro-6-({[(2R)-2-methoxypropyl]amino}methyl)-1-oxo-3H-isoindol-2-yl]pyridin-4-yl}-3-(4-methyl-1,2,4-triazol-3-yl)benzonitrile]", "values": [
      {"measurement": "IC50", "setting": "[1]", "value": "≤ 200", "unit": "nM"},
      {"measurement": "IC50", "setting": "[2]", "value": "≤ 200", "unit": "nM"}
    ]},
    {"smiles": "CN1CCC[C@@H]1COCc1cc2c(c(C(F)(F)F)c1)CN(c1cc(-c3ccc(F)cc3-c3nncn3C)cc(C3CC3)n1)C2=O", "note": "[AHO-4, 2-{6-Cyclopropyl-4-[4-fluoro-2-(4-methyl-1,2,4-triazol-3-yl)phenyl]pyridin-2-yl}-6-({[(2R)-1-methylpyrrolidin-2-yl]methoxy}methyl)-4-(trifluoromethyl)-3H-isoindol-1-one]", "values": [
      {"measurement": "IC50", "setting": "[1]", "value": "≤ 200", "unit": "nM"},
      {"measurement": "IC50", "setting": "[2]", "value": "≤ 200", "unit": "nM"}
    ]},
    {"smiles": "CCOc1cc(-c2ccc(Cl)cc2-c2nncn2C)cc(N2Cc3c(cc(CNCC4(O)CCC4)cc3C(F)(F)F)C2=O)n1", "note": "[AHW-1, 2-{4-[4-Chloro-2-(4-methyl-1,2,4-triazol-3-yl)phenyl]-6-ethoxypyridin-2-yl}-6-({[(1-hydroxycyclobutyl)methyl]amino}methyl)-4-(trifluoromethyl)-3H-isoindol-1-one]", "values": [
      {"measurement": "IC50", "setting": "[1]", "value": "≤ 200", "unit": "nM"},
      {"measurement": "IC50", "setting": "[2]", "value": "≤ 200", "unit": "nM"}
    ]},
    {"smiles": "Cn1cnnc1-c1cc(C#N)ccc1-c1cc(C2CC2)nc(N2Cc3ccc(CNC[C@H]4CCOC4)cc3C2=O)c1", "note": "[ANZ-2, 4-{2-Cyclopropyl-6-[1-oxo-6-({[(3R)-oxolan-3-ylmethyl]amino}methyl)-3H-isoindol-2-yl]pyridin-4-yl}-3-(4-methyl-1,2,4-triazol-3-yl)benzonitrile]", "values": [
      {"measurement": "IC50", "setting": "[1]", "value": "≤ 200", "unit": "nM"},
      {"measurement": "IC50", "setting": "[2]", "value": "≤ 200", "unit": "nM"}
    ]},
    {"smiles": "CCC1(NCc2cc3c(c(C(F)(F)F)c2)CN(c2cc(-c4ccc(C#N)cc4-c4nncn4C)cc(C4CC4)n2)C3=O)CC1", "note": "[AKU-2, 4-[2-Cyclopropyl-6-(6-{1[(1-ethylcyclopropyl)amino]methyl}-1-oxo-4-(trifluoromethyl)-3H-isoindol-2-yl)pyridin-4-yl]-3-(4-methyl-1,2,4-triazol-3-yl)benzonitrile]", "values": [
      {"measurement": "IC50", "setting": "[1]", "value": "≤ 200", "unit": "nM"},
      {"measurement": "IC50", "setting": "[2]", "value": "≤ 200", "unit": "nM"}
    ]},
    {"smiles": "CCNc1cnc(N2Cc3c(cc(CO)cc3C(F)(F)F)C2=O)cc1-c1ccc(F)cc1-c1nncn1C", "note": "[AHN-9, 2-(5-(Ethylamino)-4-(4-fluoro-2-(4-methyl-4H-1,2,4-triazol-3-yl)phenyl)pyridin-2-yl)-6-(hydroxymethyl)-4-(trifluoromethyl)isoindolin-1-one]", "values": [
      {"measurement": "IC50", "setting": "[1]", "value": "10000 to 50000", "unit": "nM"},
      {"measurement": "IC50", "setting": "[2]", "value": "10000 to 50000", "unit": "nM"}
    ]},
    {"smiles": "Cn1cnnc1-c1cc(C#N)ccc1-c1cc(C2CC2)nc(N2Cc3ccc(CNCC4(C#N)CCC4)cc3C2=O)c1", "note": "[AKF-2, 4-{2-[6-({[(1-Cyanocyclobutyl)methyl]amino}methyl)-1-oxo-3H-isoindol-2-yl]-6-cyclopropylpyridin-4-yl}-3-(4-methyl-1,2,4-triazol-3-yl)benzonitrile]", "values": [
      {"measurement": "IC50", "setting": "[1]", "value": "≤ 200", "unit": "nM"},
      {"measurement": "IC50", "setting": "[2]", "value": "≤ 200", "unit": "nM"}
    ]},
    {"smiles": "CN(Cc1ccc2c(c1)C(=O)N(c1cc(-c3ccc(C#N)cc3-c3nncn3C)cc(C3CC3)n1)C2)CC1(O)CCC1", "note": "[AKP-1, 4-{2-Cyclopropyl-6-[6-({[(1-hydroxycyclobutyl)methyl](methyl)amino}methyl)-1-oxo-3H-isoindol-2-yl]pyridin-4-yl}-3-(4-methyl-1,2,4-triazol-3-yl)benzonitrile]", "values": [
      {"measurement": "IC50", "setting": "[1]", "value": "≤ 200", "unit": "nM"},
      {"measurement": "IC50", "setting": "[2]", "value": "≤ 200", "unit": "nM"}
    ]},
    {"smiles": "Cn1cnnc1-c1cc(C#N)ccc1-c1cc(C2CC2)nc(N2Cc3c(F)cc(CNCC4COC4)cc3C2=O)c1", "note": "[ANB-1, 4-[2-Cyclopropyl-6-(4-fluoro-6-{[(oxetan-3-ylmethyl)amino]methyl}-1-oxo-3H-isoindol-2-yl)pyridin-4-yl]-3-(4-methyl-1,2,4-triazol-3-yl)benzonitrile]", "values": [
      {"measurement": "IC50", "setting": "[1]", "value": "≤ 200", "unit": "nM"},
      {"measurement": "IC50", "setting": "[2]", "value": "≤ 200", "unit": "nM"}
    ]}
  ]
}
